The subject of assay [1] is rabbit corneal wound model. The assay can be described thus: Corneal wound healing promotion action 2 (in vivo), wound of approximately 8 mm. Particulars: 0.3% eye drop, 25 μl instillation. On the procedure: Using the same method as (2) above, corneal epithelial abrasion was induced in a Japanese white rabbit to produce a wound of approximately 8 mm in diameter in the cornea. The wound area was measured using the fluorescein-stained area as an index to examine the effects on corneal wound healing.
The eye drops containing the respective concentrations of the test compound were instilled (25 μl at a time) at 0, 6, 12, 18, 24, 30, 36, 42, 48, and 54 hours after induction corneal epithelial abrasion. In measuring the wound area, fluorescein staining was carried out and a photograph of the cornea was measured. The fluorescein-stained area of the photographed cornea was computed using an image analysis processing system.
In Tables 3 and 4, the respective values indicate the mean value±standard deviation (n=6). Statistical analysis was carried out using Dunnett's multiple comparison with respect to physiological saline with the area of the corneal wound portion immediately after (0 hours after) corneal epithelial abrasion being set to 100% (*p<0.05, **p<0.01; vs. control).

In assay [2] the test system is rabbit corneal wound model. The assay is described as follows: Corneal wound healing promotion action 1 (in vivo), wound of approximately 6 mm. As to conditions: 5 μM eye drop, 30 μl instillation. On the procedure: Using a male Japanese white rabbit, a wound of approximately 6 mm in diameter was produced in the cornea by inducing corneal epithelial abrasion in accordance with the method of Cintron et al. (Ophthalmic Res., 11, pp. 90-96 (1979)). The wound area was measured using the fluorescein-stained area as an index. The effects of the test compound on corneal wound healing were examined.
The eye drops containing the respective concentrations of the test compound were instilled (30 μl at a time) at 0, 3, 6, 9, 12, 18, 24, 27, 30, 33, 36, 42, and 48 hours after inducing corneal epithelial abrasion. In measuring the wound area, fluorescein staining was carried out and a photograph of the cornea was measured. The fluorescein-stained area of the photographed cornea was computed using an image analysis processing system.
In Tables 1 and 2, the respective values indicate the mean value±standard deviation (n=6). Statistical analysis was carried out using Dunnett's multiple comparison with respect to PBS with the area of the corneal wound portion immediately after (0 hours after) corneal epithelial abrasion being set to 100% (*p<0.05, **p<0.01; vs. control).

This is an account of results in patent publication US20100099629A1, “OPHTHALMOLOGICAL COMPOSITION” (Nihon Tenganyaku Kenkyusho Co., LTD., priority 2002, published 2010).

Marks after values point to notes of the source that are not given here.

For hyaluronic acid, the “Healing ratio (%)” value in assay [1] (0 hr (baseline)) is on record as 0%; in assay [1] (12 hr), 13.98 ± 4.88* %; in assay [1] (18 hr) it was 28.45 ± 3.37* %; in assay [1] (24 hr), 60.78 ± 8.07** %; in assay [1] (30 hr), 60.78 ± 8.07* %.
In the case of “EGF: polypeptide with a molecular weight of 6000, mitosis-promoting growth factor for corneal epithelium”, the “Healing ratio (%)” value is listed as 0% in assay [2] (0 hr (baseline)); 14.49 ± 3.42** % in assay [2] (6 hr); 31.63 ± 1.29** % in assay [2] (12 hr); 70.78 ± 6.91** % in assay [2] (24 hr); 96.41 ± 3.97* % in assay [2] (36 hr); 99.58 ± 1.03% in assay [2] (48 hr).
